The text below walks through data of patent US20040191312A1, “5-HT3 receptor agonists as neuroprotectors” (priority 2002, published 2004).

As usually defined, the EC50 is the concentration at which the effect is half-maximal.

Structures are written as SMILES.

One experiment concerns the target T1, 5-HT3 receptor (Homo sapiens, UniProt P46098).
T1 sequence (P46098 24-478): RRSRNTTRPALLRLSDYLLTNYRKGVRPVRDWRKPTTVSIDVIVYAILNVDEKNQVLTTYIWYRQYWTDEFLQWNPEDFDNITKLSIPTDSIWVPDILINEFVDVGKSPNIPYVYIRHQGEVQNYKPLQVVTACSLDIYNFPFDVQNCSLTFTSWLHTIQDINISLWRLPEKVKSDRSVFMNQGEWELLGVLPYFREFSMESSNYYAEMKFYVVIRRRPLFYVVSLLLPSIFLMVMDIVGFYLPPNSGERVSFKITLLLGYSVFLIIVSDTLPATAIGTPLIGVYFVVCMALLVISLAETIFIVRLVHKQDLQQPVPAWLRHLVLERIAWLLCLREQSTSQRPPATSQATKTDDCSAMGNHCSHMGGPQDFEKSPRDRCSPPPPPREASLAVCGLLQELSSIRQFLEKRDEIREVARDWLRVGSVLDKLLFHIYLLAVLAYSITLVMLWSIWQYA
Conditions: known 5-HT3 agonists; van Hooft et al. 1997, Morain et al. 1994; cited from earlier work.

Experiment [1] has as its system primary neuron cultures (OGD-induced cell death). Briefly: LOPAC library screen using the oxygen-glucose deprivation (OGD) assay, ATP content as index of cell viability. Conditions: for activity at 10 µM: Rattus norvegicus, Primary neuron, read-out: Activity (% Cells Alive).
Protocol: Primary neuron cultures were prepared as follows: Brain cortices from E18 rat brains were dissected in DPBS without calcium and magnesium. They were digested at 37° C. for 30 min with trypsin. The digestion was stopped by addition of MEM, 10% Fetal Bovine Serum (FBS)and 10% Horse Serum. DNase (10 U/ml) was also added. The tissues were mechanically triturated using a pipette. This step was repeated until all cells were dissociated and then they were filtered through a 70 um Nitrex mesh. The cells were counted and plated in poly ornithine-coated 96-well culture plates at 5×10^5 cells/well in MEM containing 10% HS and 10% FBS. Three days later, the medium was changed to neurobasal-serum free containing B27 and SATO (Sodium selenite 4 μg/ml, transferrrin 100 μg/ml, BSA 100 μg/ml, progesterone 62 μg/ml, putrescine 160 μg/ml). 5-Fluoro-2′deoxyuridine (FdU 30 μM) was added to inhibit the dividing microglia from the cultures. The culture medium was changed every 3 days leaving half volume of the old (conditioned) media and adding half volume of fresh media. All experiments were performed in 11-12 days-old neuronal cultures. The cells were maintained at 37° C. in a 5% CO2 humidified incubator.
The compounds from the LOPAC library, obtained from Sigma, were plated in 96-wells at 200 μM (20× the final concentration).
The neuronal cultures were pre-incubated with the compounds (10 μM final concentration) for 2 hours. The cells were then subjected to oxygen glucose deprivation (OGD) for 120 min at 37° C. in presence of the compounds of the library. Cultures were placed in an anaerobic chamber (Forma Scientific) and washed two times with balanced salt solution (116 mM NaCl, 5.4 mM KCl, 1 mM NaH2PO4, 1.8 mm CaCl2, 26.2 mM NaHCO3, 0.01 mM glycine, pH=7.4) lacking glucose and aerated with an anaerobic gas mix (85% N2/5% CO2/10% H2) to remove residual oxygen. Control cultures were kept in the original neurobasal media but were submitted to the anaerobic conditions. MK-801 (10 μM), a non competitive NMDA receptor antagonist was used to prevent cell death after OGD caused by activation of the NMDA receptors. To terminate the oxygen glucose deprivation, the cells were removed from the anaerobic chamber and the OGD media was removed and replaced with neurobasal media. The compounds were added back for an additional 20 hours.
Cells were lysed and ATP content was measured as an index for cell viability using a commercially available reagent (Cell Titter Glo from Promega). This assay generates a luminescent signal produced by the luciferase reaction.

`Cc1[nH]c2ccc(O)cc2c1CCN` [2-methyl-5-HT, reference compound]: at 5-HT3 receptor, the EC50 is 5 to 8 µM.
Regarding `N=C(N)NC(=N)Nc1cccc(Cl)c1` [Formula I, 1-(m-chlorophenyl)-biguanide], the activity at 10 µM in experiment [1] was 106 ± 6%. Further, at 5-HT3 receptor, the EC50 is 0.4 µM.
Consider `N=C(N)NC(=N)Nc1ccccc1` [Formula II, N-phenyl-imidocarbonimidicdiamide], for which the activity at 10 µM in experiment [1] was found to be 67 ± 25%. Further, the EC50 at 5-HT3 receptor is 22 µM.
For the compound `Cc1[nH]c2ccc(O)cc2c1CCN.O=C(O)/C=C\C(=O)O` [Formula III, 2-methyl-5-hydroxytryptaminemaleate], the “Activity (% Cells Alive)” value in experiment [1] (10 μM compound, 2 h pre-incubation, OGD 120 min, compound added back 20 h, ATP content (Cell Titter Glo)) is listed as 106 ± 25%.
Regarding `CN1CCN(c2ccc3ccccc3n2)CC1` [Formula IV, 2-(1-(4-methyl)-piperazineyl)quinolinedimaleate], in experiment [1], the activity at 10 µM stood at 103 ± 30%.
Regarding `NC1CCN(c2cccc(Cl)n2)CC1` [Formula V, 1-(6-chloro-2-pyridinyl)-4-piperidinamine], in experiment [1], the activity at 10 µM worked out at 80 ± 27%.
